Data as given in patent publication US7329685B2, “1-Phenyl-2-oxo-3-sulfonylamino-pyrrolidine derivatives and related compounds as factor Xa inhibitors for the treatment of acute vascular diseases” (Glaxo Group Limited, priority 2003, dated 2008).
Structures can show the parent of a compound that is named as a salt.

The compounds below were run against human Factor Xa (Homo sapiens, UniProt P00742) (assay: In vitro assay for inhibition of Factor Xa (fluorogenic assay, Rhodamine 110 bis-CBZ-glycylglycyl-L-arginine amide substrate)). Details: Ki = IC50/1.6, tiers 'more preferably' and 'most preferably'.
Type: biochemical
Protocol: In Vitro Assay for Inhibition of Factor Xa
Compounds of the present invention were tested for their Factor Xa inhibitory activity as determined in vitro by their ability to Inhibit human Factor Xa in a fluorogenic assay, using Rhodamine 110, bis-CBZ-glycylglycyl-L-arginine amide as the fluorogenic substrate. Compounds were diluted from a 10 mM stock solution in dimethylsulfoxide at appropriate concentrations. Assay was performed at room temperature using buffer consisting of: 50 mM Tris-HCl, 150 mM NaCl, 5 mM CaCl2, pH 7.4. containing human Factor Xa (final conc. Of 0.0003U.ml-1). Compound and enzyme were preincubated for 15 min prior to addition of the substrate (final conc. of 10 μM). The reaction was stopped after 3 hrs with the addition of H-D-Phe-Pro-Arg-Chloromethylketone. An LJL-Analyst fluorimeter was used to monitor fluorescence with 485 nm excitation/535 nm emission. To obtain IC50 values the data were analysed using ActivityBase® and XLfit®.
Calculation of Ki values: Ki=IC50/(1+[Substrate]/Km)
The Ki value for the above assay can be obtained by dividing the IC50 value by 1.6.

Sequence of human Factor Xa (P00742 235-488 limits assumed): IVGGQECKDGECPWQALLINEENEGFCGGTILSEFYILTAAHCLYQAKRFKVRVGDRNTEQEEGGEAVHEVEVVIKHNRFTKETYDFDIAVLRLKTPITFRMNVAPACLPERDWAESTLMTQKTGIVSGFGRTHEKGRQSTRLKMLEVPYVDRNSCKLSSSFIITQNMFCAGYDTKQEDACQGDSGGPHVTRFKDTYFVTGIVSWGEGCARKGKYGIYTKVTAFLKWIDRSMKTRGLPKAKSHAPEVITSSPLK
Sequence of human Factor Xa (P00742 41-179 partner limits assumed): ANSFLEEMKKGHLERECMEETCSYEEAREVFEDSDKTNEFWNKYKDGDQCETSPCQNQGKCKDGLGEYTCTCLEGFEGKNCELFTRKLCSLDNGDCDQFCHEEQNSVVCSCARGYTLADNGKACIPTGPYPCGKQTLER

Row | Ki | Compound
1 | < 10 nM | C/C(=C\S(=O)(=O)N(Cc1c(C)noc1C)[C@H]1CCN(c2ccc(C(=O)N(C)C)cc2F)C1=O)c1ccc(Cl)s1 [Example 9, 4-((3S)-3-{{[(1E)-2-(5-Chloro-2-thienyl)-1-propen-1-yl]sulfonyl}[(3,5-dimethyl-4-isoxazolyl)methyl]amino}-2-oxo-1-pyrrolidinyl)-3-fluoro-N,N-dimethylbenzamide]
2 | < 10 nM | C/C(=C\S(=O)(=O)N(Cc1ccccn1)[C@H]1CCN(c2ccc(C(=O)N(C)C)cc2F)C1=O)c1ccc(Cl)s1 [Example 8, 4-{(3S)-3-[{[(1E)-2-(5-Chloro-2-thienyl)-1-propen-1-yl]sulfonyl}(2-pyridinylmethyl)amino]-2-oxo-1-pyrrolidinyl}-3-fluoro-N,N-dimethylbenzamide]
3 | < 10 nM | C/C(=C\S(=O)(=O)N(C(C)C)[C@H]1CCN(c2ccc(C(=O)N(C)C)cc2F)C1=O)c1ccc(Cl)s1 [Example 7, 4-{(3S)-3-[{[(1E)-2-(5-Chloro-2-thienyl)-1-propen-1-yl]sulfonyl}(1-methylethyl)amino]-2-oxo-1-pyrrolidinyl}-3-fluoro-N,N-dimethylbenzamide]
4 | < 10 nM | C/C(=C\S(=O)(=O)N(Cc1nccn1C)[C@H]1CCN(c2ccc(C(=O)N(C)C)cc2F)C1=O)c1ccc(Cl)s1 [Example 6, 4-((3S)-3{{[(1E)-2-(5-Chloro-2-thienyl)-1-propen-1-yl]sulfonyl}[(1-methyl-1H-imidazol-2-yl)methyl]amino}-2-oxo-1-pyrrolidinyl)-3-fluoro-N,N-dimethylbenzamide]
5 | < 10 nM | C/C(=C\S(=O)(=O)N(CCCN(C)C)[C@H]1CCN(c2ccc(C(=O)N(C)C)cc2F)C1=O)c1ccc(Cl)s1 [Example 2, 4-((3S)-3-{{[(1E)-2-(5-Chloro-2-thienyl)-1-propen-1-yl]sulfonyl}[3-(dimethylamino)propyl]amino}-2-oxo-1-Pyrrolidinyl)-3-fluoro-N,N-dimethylbenzamide formate]
6 | < 10 nM | COCCN([C@H]1CCN(c2ccc(C(=O)N(C)C)cc2F)C1=O)S(=O)(=O)/C=C(\C)c1ccc(Cl)s1 [Example 10, 4-((3S)-3-{{[(1E)-2-(5-Chloro-2-thienyl)-1-propen-1-yl]sulfonyl}[2-(methyloxy)ethyl]amino}-2-oxo-1-pyrrolidinyl)-3-fluoro-N,N-dimethylbenzamide]
7 | < 10 nM | C/C(=C\S(=O)(=O)N(CCOC(C)(C)C)[C@H]1CCN(c2ccc(C(=O)N(C)C)cc2F)C1=O)c1ccc(Cl)s1 [Example 11, 4-[(3S)-3-({[(1E)-2-(5-Chloro-2-thienyl)-1-propen-1-yl]sulfonyl}{2-[(1,1-dimethylethyl)oxy]ethyl}amino)-2-oxo-1-pyrrolidinyl]-3-fluoro-N,N-dimethylbenzamide]
8 | < 10 nM | C/C(=C\S(=O)(=O)N(CCOCC(N)=O)[C@H]1CCN(c2ccc(C(=O)N(C)C)cc2F)C1=O)c1ccc(Cl)s1 [Example 4, 4-[(3S)-3-({2-[(2-Amino-2-oxoethyl)oxy]ethyl}{[(1E)-2-(5-chloro-2-thienyl)-1-propen-1-yl]sulfonyl}amino)-2-oxo-1-pyrrolidinyl]-3-fluoro-N,N-dimethylbenzamide]

Continued, compound first:

Row | Compound | Ki
9 | C/C(=C\S(=O)(=O)N(Cc1nccnc1N)[C@H]1CCN(c2ccc(C(=O)N(C)C)cc2F)C1=O)c1ccc(Cl)s1 [Example 12, 4-[(3S)-3-([(3-Amino-2-pyrazinyl)methyl]{[(1E)-2-(5-chloro-2-thienyl)-1-propen-1-yl]sulfonyl}amino)-2-oxo-1-pyrrolidinyl]-3-fluoro-N,N-dimethylbenzamide] | < 10 nM
10 | C/C(=C\S(=O)(=O)N(CC1CC1)[C@H]1CCN(c2ccc(C(=O)N(C)C)cc2F)C1=O)c1ccc(Cl)s1 [Example 1, 4-{(3S)-3-[{[(1E)-2-(5-Chloro-2-thienyl)-1-propen-1-yl]sulfonyl}(cycloprotylmethyl)amino]-2-oxo-1-pyrrolidinyl}-3-fluoro-N,N-dimethylbenzamide] | < 10 nM
11 | C/C(=C\S(=O)(=O)N(C1CCCC1)[C@H]1CCN(c2ccc(C(=O)N(C)C)cc2F)C1=O)c1ccc(Cl)s1 [Example 5, 4-{(3S)-3-[{[(1E)-2-(5-Chloro-2-thienyl)-1-propen-1-yl]sulfonyl}(cyclopentyl)amino]-2-oxo-1-pyrrolidinyl}-3-fluoro-N,N-dimethylbenzamide] | < 10 nM
12 | CN(C)C(=O)c1ccc(N2CC[C@H](N(C)S(=O)(=O)/C=C/c3ccc(Cl)s3)C2=O)c(F)c1 [Example 14, 4-{(3S)-3-[{[(E)-2-(5-chloro-2-thienyl)ethenyl]sulfonyl}(methyl)amino]-2-oxo-1-pyrrolidinyl}-3-fluoro-N,N-dimethylbenzamide] | < 10 nM
13 | C/C(=C\S(=O)(=O)N(C)[C@H]1CCN(c2ccc(C(=O)N(C)C)cc2F)C1=O)c1ccc(Cl)s1 [Example 13, 4-{(3S)-3-[{[(1E)-2-(5-Chloro-2-thienyl)-1-propen-1-yl]sulfonyl}(methyl)amino]-2-oxo-1-pyrrolidinyl}-3-fluoro-N,N-dimethylbenzamide] | < 10 nM
